Laboratory results taken from ChEMBL document CHEMBL1201862, “PubChem BioAssay data set” (2004).
The source made the active and inactive calls.

Legend:
[1] = tested on: Streptococcus sp. 'group A'; experiment: growth inhibition of control SK(-) GAS strain, dose response, counter-screen for streptokinase expression inhibitor project, luminescence, kanamycin, BacTiterGlo, confirmation (AID 1900); format: functional, organism-based
Streptokinase A = molecular target: T1, Streptokinase A (Streptococcus pyogenes serotype M1, UniProt P10520); experiment: S. pyogenes streptokinase expression inhibitors, potency, dose response, plasminogen activation absorbance, OD405 (AID 1914); format: functional, Streptococcus pyogenes M1 GAS;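 note: secreted streptokinase activity via plasminogen activation per viability signal from cell pellet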
T1 sequence (P10520 whole entry): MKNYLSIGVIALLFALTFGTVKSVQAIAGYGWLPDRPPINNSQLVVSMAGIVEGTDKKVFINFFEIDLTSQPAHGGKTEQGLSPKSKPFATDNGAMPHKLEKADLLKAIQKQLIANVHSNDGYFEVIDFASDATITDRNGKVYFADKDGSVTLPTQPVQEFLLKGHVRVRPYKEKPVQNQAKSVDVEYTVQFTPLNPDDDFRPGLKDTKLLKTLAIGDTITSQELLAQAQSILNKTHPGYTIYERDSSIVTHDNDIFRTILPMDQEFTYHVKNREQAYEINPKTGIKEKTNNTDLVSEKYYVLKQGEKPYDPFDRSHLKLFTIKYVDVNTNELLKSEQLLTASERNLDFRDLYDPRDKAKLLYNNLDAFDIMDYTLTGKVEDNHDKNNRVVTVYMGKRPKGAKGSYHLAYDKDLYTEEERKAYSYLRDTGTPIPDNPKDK

Streptococcus = experiment: Group A Streptococcus viability loss, dose response, counter-screen for streptokinase expression inhibitor project, luminescence, BacTiterGlo (AID 1915); format: functional, organism-based;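 note: potency for reduction of bacterial viability or growth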
Albumin = Albumin (Bos taurus, UniProt P02769); experiment: Counterscreen for inhibitors of T-cell receptor (TCR)-CD3 interaction: Fluorescence-based biochemical high throughput dose response assay to identify inhibitors of T-cell receptor (TCR)-CD3 interaction using a TAMRA-labeled BSA probe.; format: functional
Chain of Albumin (P02769 whole entry): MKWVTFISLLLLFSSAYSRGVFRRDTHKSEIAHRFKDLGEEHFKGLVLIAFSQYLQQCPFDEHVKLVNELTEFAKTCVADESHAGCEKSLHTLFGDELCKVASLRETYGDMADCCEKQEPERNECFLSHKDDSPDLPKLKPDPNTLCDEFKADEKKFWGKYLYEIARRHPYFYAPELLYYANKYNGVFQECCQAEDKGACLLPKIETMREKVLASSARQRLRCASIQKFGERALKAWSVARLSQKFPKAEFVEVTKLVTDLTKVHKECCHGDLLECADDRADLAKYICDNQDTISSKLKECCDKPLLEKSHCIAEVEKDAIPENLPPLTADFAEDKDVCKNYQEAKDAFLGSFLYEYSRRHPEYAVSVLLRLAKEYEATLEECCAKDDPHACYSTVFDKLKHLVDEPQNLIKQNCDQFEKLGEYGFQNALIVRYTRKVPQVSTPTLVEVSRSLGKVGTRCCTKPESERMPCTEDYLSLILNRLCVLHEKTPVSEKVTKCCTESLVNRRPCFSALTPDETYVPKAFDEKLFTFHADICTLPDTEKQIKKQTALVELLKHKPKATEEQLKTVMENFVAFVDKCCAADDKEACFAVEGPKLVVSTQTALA

[2] = molecular target: NAD-dependent protein deacylase sirtuin-5, mitochondrial (Homo sapiens, UniProt Q9NXA8); experiment: SIRT5 desuccinylase inhibitors, dose response, biochemical, fluorescence imaging, cherry-pick, set 5 (AID 720591);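 note: desuccinylation of succinyl peptide AMC substrate read as fluorescence after trypsin release; potency of inhibitors that lower fluorescence and may act on trypsin instead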
Chain of NAD-dependent protein deacylase sirtuin-5, mitochondrial (Q9NXA8 whole entry): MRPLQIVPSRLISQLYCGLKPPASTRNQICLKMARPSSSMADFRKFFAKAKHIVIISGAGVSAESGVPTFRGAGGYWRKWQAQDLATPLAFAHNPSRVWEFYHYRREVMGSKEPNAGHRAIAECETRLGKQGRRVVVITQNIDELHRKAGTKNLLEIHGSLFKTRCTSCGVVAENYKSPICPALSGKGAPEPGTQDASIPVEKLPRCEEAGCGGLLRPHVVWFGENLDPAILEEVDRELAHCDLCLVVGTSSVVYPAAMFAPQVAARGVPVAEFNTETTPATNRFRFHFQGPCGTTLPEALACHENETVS

Protein Tat = molecular target: T2, Protein Tat (Human immunodeficiency virus type 1 group M subtype B (isolate HXB2)(HIV-1), UniProt P04608); format: functional;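 note: tat binding to TAR RNA read out by fluorescence polarization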
T2 sequence (P04608 whole entry): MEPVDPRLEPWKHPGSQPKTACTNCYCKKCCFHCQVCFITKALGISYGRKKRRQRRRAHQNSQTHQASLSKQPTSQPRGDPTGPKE

[3] = Luminescence Cell-Based Dose Confirmation HTS to Identify Activators of 5'UTR Stem-Loop Driven Alpha-Synuclein mRNA Translation in H4 Neuroglioblastoma Cells. [Related pubchem assays: 1829 (Project Summary), 1814 (Primary HTS)]; format: functional
[4] = Luminescence Cell-Based Dose Response HTS to Identify Activators of Luciferase Translation or Activity in H4 […] Cells. [Related pubchem assays: 1829 (Project Summary), 1814 (Primary HTS)]; format: functional
H4 = experiment: Luminescence Cell-Based Dose Response HTS to Identify Activators of 5'UTR Stem-Loop Driven Prion Protein mRNA Translation in H4 Neuroglioblastoma Cells. [Related pubchem assays: 1829 (Project Summary), 1814 (Primary HTS)]; format: functional; details: Homo sapiens
[5] = molecular target: Dual specificity tyrosine-phosphorylation-regulated kinase 1A (Rattus norvegicus, UniProt Q63470); format: biochemical, Homo sapiens
[6] = A549 cell cytotoxicity, dose response, cytotoxicity control, plate reader, cherry-pick, antagonist series (AID 743412); format: functional, cell-based
[7] = HepG2 cell cytotoxicity, dose response, cytotoxicity control, plate reader, cherry-pick, antagonist series (AID 743416); format: functional, cell-based
[8] = LGR2 antagonists, dose response, cell-based, HEK293, CRE-luciferase reporter, cherry pick, set 2 (AID 743343); format: functional;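 note: transfected cells were stimulated with diluted bursicon conditioned medium after compound addition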
[9] = MC4R antagonists, dose response, counter-screen for LGR2 antagonist project, cell-based, plate reader, cherry pick (AID 743444); format: functional;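 note: transfected HEK 293 cells stimulated with alpha-MSH peptide; potency of inhibitors of the alpha-MSH evoked signal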
[10] = molecular target: T3, Replicative DNA helicase DnaB (Mycobacterium tuberculosis, UniProt P9WMR3); experiment: DnaB intein splicing inhibitors, dose response, biochemical, cell-free fluorescence (AID 449749); format: functional
T3 sequence (P9WMR3 whole entry): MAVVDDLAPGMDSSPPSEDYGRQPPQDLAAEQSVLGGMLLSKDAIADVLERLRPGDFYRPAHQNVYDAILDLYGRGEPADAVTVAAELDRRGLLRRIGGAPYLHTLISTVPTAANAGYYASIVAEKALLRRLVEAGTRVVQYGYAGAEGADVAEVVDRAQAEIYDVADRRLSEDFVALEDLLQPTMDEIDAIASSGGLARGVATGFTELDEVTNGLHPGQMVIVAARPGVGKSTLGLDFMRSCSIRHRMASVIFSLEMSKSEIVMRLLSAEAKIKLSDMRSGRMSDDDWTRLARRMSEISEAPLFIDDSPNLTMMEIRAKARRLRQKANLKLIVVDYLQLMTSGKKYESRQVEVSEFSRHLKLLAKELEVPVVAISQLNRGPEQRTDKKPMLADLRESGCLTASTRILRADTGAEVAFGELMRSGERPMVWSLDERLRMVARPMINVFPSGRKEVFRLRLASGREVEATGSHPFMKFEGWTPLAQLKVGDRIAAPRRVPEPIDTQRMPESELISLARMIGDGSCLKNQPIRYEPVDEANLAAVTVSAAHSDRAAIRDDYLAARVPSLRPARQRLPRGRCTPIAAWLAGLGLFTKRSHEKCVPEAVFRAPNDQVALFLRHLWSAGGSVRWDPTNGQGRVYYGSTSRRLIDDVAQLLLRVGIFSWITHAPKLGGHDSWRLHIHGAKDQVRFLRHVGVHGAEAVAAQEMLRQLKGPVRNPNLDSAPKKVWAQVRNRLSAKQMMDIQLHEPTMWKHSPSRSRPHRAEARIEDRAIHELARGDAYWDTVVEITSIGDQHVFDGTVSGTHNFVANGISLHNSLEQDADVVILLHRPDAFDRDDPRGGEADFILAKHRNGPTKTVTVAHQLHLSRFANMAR

Protein RecA = molecular target: T4, Protein RecA (Mycobacterium tuberculosis, UniProt P9WHJ3); experiment: Fluorescence Cell-Free Homogeneous Dose Retest to Identify Inhibitors of RecA-Intein Splicing Activity. [Related pubchem assays (depositor defined):AID2097, AID2223, AID489010, AID492950]; format: functional
T4 sequence (P9WHJ3 whole entry): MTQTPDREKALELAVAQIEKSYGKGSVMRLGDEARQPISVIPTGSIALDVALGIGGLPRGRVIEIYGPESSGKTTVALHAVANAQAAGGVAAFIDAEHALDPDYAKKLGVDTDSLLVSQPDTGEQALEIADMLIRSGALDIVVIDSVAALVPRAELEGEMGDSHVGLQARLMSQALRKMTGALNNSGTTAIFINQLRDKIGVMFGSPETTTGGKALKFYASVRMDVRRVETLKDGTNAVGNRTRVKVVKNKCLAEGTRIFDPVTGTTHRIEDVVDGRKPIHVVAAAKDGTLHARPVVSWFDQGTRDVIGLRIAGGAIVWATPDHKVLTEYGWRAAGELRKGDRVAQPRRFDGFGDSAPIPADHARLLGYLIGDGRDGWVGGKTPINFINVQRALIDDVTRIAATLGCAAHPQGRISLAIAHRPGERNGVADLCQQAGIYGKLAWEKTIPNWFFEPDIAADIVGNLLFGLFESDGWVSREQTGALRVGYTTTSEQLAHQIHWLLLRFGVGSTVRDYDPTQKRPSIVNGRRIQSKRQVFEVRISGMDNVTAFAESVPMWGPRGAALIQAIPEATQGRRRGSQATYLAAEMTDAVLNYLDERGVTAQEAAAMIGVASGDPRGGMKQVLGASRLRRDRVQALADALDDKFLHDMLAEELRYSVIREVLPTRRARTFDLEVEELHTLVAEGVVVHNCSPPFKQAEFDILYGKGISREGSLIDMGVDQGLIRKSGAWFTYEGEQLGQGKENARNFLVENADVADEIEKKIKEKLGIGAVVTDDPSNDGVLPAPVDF

[11] = molecular target: Disintegrin and metalloproteinase domain-containing protein 17 (Homo sapiens, UniProt P78536); experiment: exosite inhibitors of ADAM17, dose response, biochemical (AID 743260)
Chain of Disintegrin and metalloproteinase domain-containing protein 17 (P78536 whole entry, the tested form may be a part): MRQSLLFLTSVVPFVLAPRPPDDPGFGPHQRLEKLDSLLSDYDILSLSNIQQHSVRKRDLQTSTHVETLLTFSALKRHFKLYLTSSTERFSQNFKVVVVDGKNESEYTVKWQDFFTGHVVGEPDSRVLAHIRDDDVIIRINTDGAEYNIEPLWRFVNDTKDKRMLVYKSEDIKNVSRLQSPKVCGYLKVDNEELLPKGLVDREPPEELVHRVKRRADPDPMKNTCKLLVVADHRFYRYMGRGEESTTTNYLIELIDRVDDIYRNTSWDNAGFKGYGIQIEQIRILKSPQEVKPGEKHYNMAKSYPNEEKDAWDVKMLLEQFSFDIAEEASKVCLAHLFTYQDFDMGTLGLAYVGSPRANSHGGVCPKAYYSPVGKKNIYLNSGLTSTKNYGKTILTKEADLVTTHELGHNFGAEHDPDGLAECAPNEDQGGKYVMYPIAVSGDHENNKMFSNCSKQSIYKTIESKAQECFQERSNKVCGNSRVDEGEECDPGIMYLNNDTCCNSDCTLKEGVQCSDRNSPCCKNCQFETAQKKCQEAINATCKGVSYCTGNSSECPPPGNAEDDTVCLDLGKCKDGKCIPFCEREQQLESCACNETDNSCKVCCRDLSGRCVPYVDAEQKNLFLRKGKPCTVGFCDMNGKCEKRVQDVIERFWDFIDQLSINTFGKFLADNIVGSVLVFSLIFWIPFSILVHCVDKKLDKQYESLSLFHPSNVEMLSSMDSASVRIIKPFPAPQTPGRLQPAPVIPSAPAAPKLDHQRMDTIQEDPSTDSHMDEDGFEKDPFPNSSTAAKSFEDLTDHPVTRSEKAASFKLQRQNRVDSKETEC

[12] = inhibitors of intracellular T. cruzi replication, confirmation, NIH3T3 host cells, beta-gal luminescence (AID 2044); format: functional, cell-based;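 note: intracellular parasites grown in NIH/3T3 mouse fibroblasts as host cells; luminescent beta-galactosidase reporter signal from transgenic T. cruzi replicating inside host cells; inhibitors lower the luminescence signal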
[13] = microbe, parasite or virus in culture; format: functional; details: Mycobacterium tuberculosis
[14] = cytotoxicity toward NIH3T3 fibroblasts, dose response, counter-screen, cell-based, ATP luminescence, mouse fibroblasts (AID 2010); format: functional;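 note: cells exposed to compound for about 90 hours before reading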
[15] = half-maximal inhibitory concentration for glucagon-like peptide-1 release, STC-1 cell line, dose-response (AID 1117345); format: functional, cell-based
[16] = Glucagon-like peptide 1 release potency, NCI-H716 cell line, dose-response, half-maximal inhibitory concentration (AID 1117344); format: functional, cell-based

## COc1ccc(CC(=O)N/N=C/c2cc([N+](=O)[O-])cc(Br)c2O)cc1
[1]
  EC50: 3.53 µM (active)
Streptokinase A
  EC50: > 150 µM (not active)
Streptococcus
  EC50: 6.89 µM (active)
Albumin
  IC50: > 94.1 µM (inactive)

## Cc1ccc(CCN2CC(C(=O)NCCN(C)C)CC2=O)cc1 (stereo not drawn)
[2]
  AC50: > 30 µM (inactive)

## CSc1oc(-c2ccco2)nc1S(=O)(=O)c1ccccc1
Protein Tat
  IC50: > 100 µM (active)

## Fc1cccc(/C=N/Nc2[nH]cnc3ncnc2-3)c1
[3]
  EC50: > 120 µM (not active)
[4]
  EC50: 40.8 µM (active)
H4
  EC50: > 120 µM (not active)
[5]
  AC50: 10.1 µM (active)

## COc1ccc2nc(NC(=O)c3ccccc3F)sc2c1
[6]
  AC50: > 52 µM (inactive)
[7]
  AC50: > 52 µM (inactive)
[8]
  AC50: 19.9 µM (active)
[9]
  AC50: 27.2 µM (active)

## CCN(CC(=O)Nc1ccccc1C(F)(F)F)C(=O)c1ccc2c(=O)n3c(nc2c1)CCC3
[2]
  AC50: > 30 µM (inactive)

## C[C@H](CO)N1C[C@H](C)[C@H](CN(C)C(=O)Nc2cccc3ccccc23)OCc2cnnn2CCCC1=O
[2]
  AC50: 2.28 µM (active)

## COc1cc(C(c2c(C)[nH][nH]c2=O)c2c(C)[nH][nH]c2=O)ccc1OCc1ccc([N+](=O)[O-])cc1
[10]
  AC50: 0.338 µM (active)
Protein RecA
  EC50: 0.178 µM (active)
[11]
  IC50: > 69.5 µM (inactive)

## C/C(=N\N=C(/N)SC1CC(=O)N(c2ccc(Br)cc2)C1=O)c1cccs1 (stereo not drawn)
[1]
  EC50: 6.72 µM (active)
Streptokinase A
  EC50: 9.08 µM (active)
Streptococcus
  EC50: 19.1 µM (active)
[11]
  IC50: > 69.5 µM (inactive)

## C#C[C@]1(O)CC[C@H]2[C@@H]3CCc4cc(OC5CCCC5)ccc4[C@H]3CC[C@@]21C [QUINESTROL]
[3]
  EC50: > 120 µM (not active)
[4]
  EC50: > 120 µM (not active)
[1]
  EC50: 1.94 µM (active)
H4
  EC50: > 120 µM (not active)
[12]
  EC50: 4.43 µM (active)
[13]
  CC50: > 40 µM (active)
[14]
  EC50: > 60 µM (not active)
Streptococcus
  EC50: 4.17 µM (active)
[15]
  IC50: > 40 µM (inactive)
[16]
  IC50: 17.6 µM (inactive)
